In assay [1] the test system is MMTV-PyMT breast transgenic model primary tumour. Kind of assay: MMTV-PyMT transgenic mouse breast cancer model, primary tumour T/C. The format is in vivo. To be noted: 200 mg/kg po qd; ratio of average tumour volume treated/vehicle control; p<0.05. The method, then:
(§1) All procedures involving animals were approved by the Animal Welfare and Ethical Review Body of the Institute of Cancer Research and Cancer Research UK Manchester Institute in accordance with National Home Office regulations under the Animals (Scientific Procedures) Act 1986 and according to the guidelines of the Committee of the National Cancer Research Institute Tumour size was determined by caliper measurements of tumour length, width and depth and volume was calculated as volume=0.5236×length×width×depth (mm).
(§2) MMTV-PyMT (Guy et al, 1992) (FVB) female mice were randomized by non-statistical methods to LOX inhibitor treatment groups from day 70 post-birth, when animals had no detectable tumour. Mice were treated daily by oral gavage with LOX inhibitor in vehicle, or daily vehicle (5% DMSO/2.5% Tween20 in water) by oral gavage. Tumour size was determined unblinded by caliper measurements of tumour length, width and depth and volume was calculated as 0.5236×length×width×depth (mm). In all experiments, mice were humanely killed and mammary tumours and lungs were collected when the primary tumours reached ethical limits or signs of ill health.
(§3) For therapeutic efficacy assessment, the ratio of average tumour volume between compound treated and vehicle control treated (T/C) is calculated. Reduction in tumour volume in the compound treated group compared to vehicle-treated control group results in T/C<1. The efficacy of LOX inhibitors described in this invention, as measured by T/C in a pancreatic cancer model, a colorectal cancer model and a breast cancer model is shown in Table 2 and is significant (p<0.05) for all the data presented.

Assay [2] concerns MMTV-PyMT breast transgenic model lung metastases. The assay can be described thus: MMTV-PyMT transgenic mouse breast cancer model, lung metastases quantification T/C. Format: in vivo. To be noted: 200 mg/kg po qd, treated/vehicle control, p<0.05. The method, then:
as §2
For lung metastases quantification, all mouse tissue samples were fixed in 10% formalin (Sigma) and embedded in paraffin. Samples were sectioned and hematoxylin and eosin (H&E) stained. Samples were imaged with a Leica CN400 slide scanner. Lung metastases were manually selected using Pen tool in ImageScope. Lung metastases number was counted and area was measured using ImageScope. The investigator was blinded to the experimental groups. The ratio of average metastases surface between compound treated and vehicle control treated (TIC) is calculated. The ratio of average metastases numbers between compound treated and vehicle control treated (T/C) is also calculated. Reduction in metastases area and/or in metastatses number in the compound treated group compared to vehicle-treated control group results in T/C<1. The antimetastatic efficacy of LOX inhibitors described in this invention, as measured by T/C in a model of breast cancer metastasising to lungs is shown in Table 2 and is significant (p<0.05) for all the data presented.

Assay [3] deals with SW620 human colorectal carcinoma cells (mutant RAS). Kind of assay: SW620 xenografts, primary tumour volume T/C. The format is in vivo. To be noted: 200 mg/kg po qd; ratio of average tumour volume treated/vehicle control; p<0.05. The method, then: as §1
SW620 xenografts: NCr mice were inoculated subcutaneously in the right flank with 5×10^6 SW620 cells at 100 ul suspension per animal. Groups of 7-8 mice were assigned to treatment following stratified allocation of tumour volumes with a median size of circa 100 mm^3. […] Tumours and weights are measured twice weekly using calipers. […] Frozen samples are kept at −80 degree centigrade until being analysed and the fixed samples stained according to the desired marker.
For therapeutic efficacy assessment, the ratio of average tumour volume between compound treated and vehicle control treated (T/C) is calculated. […] The efficacy of LOX inhibitors described in this invention, as measured by T/C in a pancreatic cancer model, a colorectal cancer model and a breast cancer model is shown in Table 2 and is significant (p<0.05) for all the data presented.

The test system of assay [4] is MDA-MB-231 human breast adenocarcinoma. Kind of assay: MDA-MB-231 xenografts, primary tumour volume T/C. Format: in vivo. The settings on record: 200 mg/kg po qd, ratio of average tumour volume treated/vehicle control, p<0.05. The method, then:
as §1
MDA-MB-231 xenografts. Ncr nude female mice at 6 weeks old from Charles River were injected into the third upper nipple mammary fat pad with MDA-MB-231 Luc 4×10^6 in 100 ul PB (50:50 Matrigel). When tumours reach a mean of 80 mm^3 around 10 days post cell inoculation the animals are allocated in 4 groups of 8. LOX inhibitor treatment is then administrated by oral gavage dosing, at 0.2 ml/20 g bodyweight once daily for up to 28 consecutive days. Tumours and weights are measured twice weekly using calipers and the animals can be imaged using non invasive method by bioluminescence using IVIS 200 imaging machine, weekly using 150 mg/kg luciferin administrate intraperitoneal or subcutaneous. At the end of the study the animals are culled, and samples taken, fixed or snap frozen in liquid nitrogen. Frozen samples kept at −80 degree centigrade until being analyzed and the fixed samples stained according to desired marker.
as §3

The target of assay [5] is T1, LOX (Mus musculus, UniProt P28301).
T1 construct: Full length LOX cDNA was then PCR cloned into pEGFP-N1 (Clonetech), or biosensor vector proGFP2-N1; expressed in transfected cells; host or cells: MDCK cells grown as cysts on Matrigel, G418-selected
T1 sequence (P28301 163-411): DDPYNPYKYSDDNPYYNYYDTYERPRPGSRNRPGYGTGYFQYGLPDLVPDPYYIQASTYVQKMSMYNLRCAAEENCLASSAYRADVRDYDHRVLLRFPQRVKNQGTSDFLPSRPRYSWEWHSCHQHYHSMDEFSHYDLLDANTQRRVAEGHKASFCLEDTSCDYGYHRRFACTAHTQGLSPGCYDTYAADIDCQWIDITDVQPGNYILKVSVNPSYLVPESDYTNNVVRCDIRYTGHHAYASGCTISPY
Kind of assay: LOX activity in cysts assay (LOX-roGFP2 biosensor, MDCK cysts). Format: cell-based. To be noted: MDCK cysts; for pIC50: roGFP2 ratio at basal surface, read-out: LOX biosensor IC50 (cyst). Summed up:
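Live MDCK cysts grown 10 days on Matrigel and expressing mouse LOX fused to the roGFP2 redox biosensor, with inhibitors added 30 min before confocal imaging. Oxidised/reduced ratio (405/488 nm excitation, 500–530 nm emission) at the basal cyst surface taken as LOX activity. DMSO defines 0% and 1 mM BAPN 100% inhibition.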

The test system of assay [6] is PDAC TRP53R172H (p53 mut) cells (mouse pancreatic carcinoma). The assay can be described thus: PDAC allografts, primary tumour volume T/C. Format: in vivo. To be noted: ratio of average tumour volume treated/vehicle control, p<0.05. How it is done: as §1
PDAC allografts: CD1 nu/nu female mice at 6 weeks of age were inoculated subcutaneously in the right flank with 2×10^6 PDAC TRP53R172H (p53 mut) cells at 100 ul suspension per animal. In some examples, the oral dosing by metal gavage commences one day after cells inoculation, at 0.2 ml/20 g bodyweight per animal once daily for 2-4 weeks, with compound dissolved in 5.25% tween20/saline or 5% DMSO/water. In other examples, groups of 7-8 mice were assigned to treatment following stratified allocation of tumour volumes with a median size of circa 100 mm^3. […] Control animals received a similar dosage of vehicle (5.25% tween20/saline). Tumours and weights are measured twice weekly using calipers. At the end of the study the animals are culled, and samples taken, fixed or snap frozen in liquid nitrogen. Frozen samples kept at −80 degree centigrade until being analysed and the fixed samples stained according to the desired marker.
as §3

pIC50: −log10 of the molar value.

As a reminder, the inhibition is the change of the read-out against control, counted positive when it falls. In general, pIC50 refers to the negative decadic logarithm of the IC50, by convention in mol/L. For the molecule `CC1(C)C[C@@H]2CN(C(=O)N3CCS(=O)(=O)CC3)C[C@H]1N(c1ccc(N3CCS(=O)(=O)CC3)cc1)C2` [Example 8, (1,1-dioxidothiomorpholino)((1S,5S)-6-(4-(1,1-dioxidothiomorpholino)phenyl)-9,9-dimethyl-3,6-diazabicyclo[3.2.2]nonan-3-yl)methanone], the “T/C MMT-PyMT breast transgenic model - primary tumour” value in assay [1] was determined as 0.22. Further, in assay [2] (lung metastases area), the “T/C MMT-PyMT breast transgenic model - metastases b) Area” value is on record as “b) 0.012”. In assay [2] (lung metastases number), the “T/C MMT-PyMT breast transgenic model - metastases a) Count” value was “a) 0.1”. Also, the “T/C SW620 human colorectal carcinoma cells (mutant RAS) - primary tumour” value in assay [3] was determined as 0.48. Also, the response vs control in vivo at 200 mg/kg in assay [4] was 54%. The inhibition at 2.5 µM in assay [5] (2.5 uM (stated in cell), DMSO = 0%, BAPN 1 mM = 100% inhibition, read-out: LOX biosensor inhibition (cyst) @ 2.5 uM) was 100%. The pIC50 in assay [5] is 6.27.

As to `CCOc1ccc(N2C[C@H]3CN(C(=O)NCCO)C[C@@H]2C(C)(C)C3)cc1` [Example 12, (1S,5S)-N-(2-hydroxyethyl)-6-(4-ethoxyphenyl)-9,9-dimethyl-3,6-diazabicyclo[3.2.2]nonane-3-carboxamide], the “T/C PDAC R172H (p53 mut) (mouse pancreatic carcinoma) - primary tumour” value in assay [6] (200 mg/kg po qd) was 0.47. Moreover, in assay [1], the “T/C MMT-PyMT breast transgenic model - primary tumour” value was 0.26. In addition, the pIC50 in assay [5] was 6.05.

On to `CCOc1ccc(N2C[C@H]3CN(C(=O)NCCS(C)(=O)=O)C[C@@H]2C(C)(C)C3)cc1` [Example 13, (1S,5S)-6-(4-ethoxyphenyl)-9,9-dimethyl-N-(2-(methylsulfonyl)ethyl)-3,6-diazabicyclo[3.2.2]nonane-3-carboxamide], for which the “T/C PDAC R172H (p53 mut) (mouse pancreatic carcinoma) - primary tumour” value in assay [6] (100 mg/kg bid) amounted to 0.56. In addition, the response vs control in vivo at 200 mg/kg in assay [4] is 63%. For the same molecule, the negative logarithm of the IC50 (pIC50) in assay [5] was 5.99.

Values taken from patent publication US12060360B2, “Lysyl oxidase inhibitors” (The Institute of Cancer Research: Royal Cancer Hospital, priority 2017, dated 2024).
